Where a name gives a salt, the structure may show the parent alone. Read-outs that look alike come from different tables or passages of the source.
How the values were obtained:
[1] = Drug loading in silk spheres (supernatant absorbance at 555 nm); format: physicochemical; settings: drug/silk 1:100; spheres from 1.0% silk/4.0% PVA blend
Description: Tetramethylrhodamine conjugated bovine serum albumin (TMR-BSA, M.w.=66,000 Da), tetramethylrhodamine conjugated dextran (TMR-Dextran, M.w.=10,000 Da), and rhodamine B (RhB, M.w.=479 Da) were used as model drugs to study the drug loading in silk nano- and micro spheres. Stock solutions of drugs were prepared with a concentration of 5 mg/ml in PBS buffer, pH 7.4, and stored at −20° C. Certain amount of stock solution of drugs was added to silk fibroin solution, before the silk fibroin solution was prepared into silk nano- and micro spheres, to reach to a drug/silk ratio of 1:100 (weight ratio). After mixing, the drug loaded silk fibroin solution was used to blend with PVA solution following the steps described in the Example 2, without the sonication treatment. A 5 wt % of silk and PVA concentrations and a silk/PVA ratio of 1:4 were used in this example. At this concentration, the silk/PVA film with a silk/PVA ratio of 1/4 can generate silk spheres with narrower size distribution, perhaps because the blend film is easier to dissolve in water forming homogeneous sphere suspension.
To determine the amount of drug loading in silk spheres, the supernatants collected from the centrifugation steps were subjected to absorbance measurement at 555 nm. The amount of drug was calculated based on a standard curve obtained at the same condition. The amount of drug in silk spheres was calculated from the difference between the total amount used and the amount remained in the supernatants. For each drug loading, at least three samples were prepared in order to obtain a standard deviation. The pellets from the last step of centrifugation were suspended in 2 ml of PBS buffer, pH 7.4, and used for the following confocal microscopy and drug release studies in Example 6.

[2] = Cumulative drug release from silk spheres in PBS; format: physicochemical; settings: for In vitro drug release: Microspheres, PVA blend film
Description: Silk spheres loaded with model drugs as described in Example 5 were lyophilized. 10 mg of lyophilized silk spheres were suspended in 1 ml of PBS buffer, pH 7.4. The samples were incubated at room temperature under slow shaking condition. A cumulative drug release profile at each different time point (1, 4, 8.5, 24, 48, 120, 192, 342 hr) was determined by following the steps of (a) centrifuging the samples at 12,000 rpm for 10 min with a Sigma ISS-113 microcentrifuge (Sigma Chemical Co., St. Louis, Mo.); (b) carefully transferring the supernatants to empty tubes, subjecting the collected supernatants to the absorbance measurement at a wavelength of 555 nm, calculating the amount of model drug based on a standard curve, and comparing the data at the current time point with the original amounted drug loaded in the spheres; (c) suspending the precipitated pellets in 1 ml of PBS buffer; and (d) repeating the steps of (a)-(c) at each time point to obtain a cumulative drug release profile. For each model drug, at least three samples were prepared in order to obtain a standard deviation.

[3] = cited from earlier work
[4] = Microspheres, Vibrational splitting of laminar jet

Molecule: CCN(CC)c1ccc2c(-c3ccccc3C(=O)O)c3ccc(=[N+](CC)CC)cc-3oc2c1.[Cl-] [RhB, rhodamine B]
- loading efficiency [1]: approximately 95%
- In vitro drug release [2]: >4 weeks
- initial burst release ([2]; PBS pH 7.4, room temperature): about 1%

Molecule: O=C(O)c1ccccc1O [Salicylic acid]
- In vitro drug release [3, 4]: 1 days

Molecule: CC(C)NCC(O)COc1cccc2ccccc12 (centres unmarked) [propranolol hydrochloride]
- In vitro drug release [3, 4]: 20 days

Molecule: Cn1c(=O)c2[nH]cnc2n(C)c1=O [theophylline]
- In vitro drug release ([3]; Layer-by-layer coatings, Coat drug tablet): >0.33 days

Molecule: Dextran
- In vitro drug release [2]: 7 days

Molecule: IGF-I: insulin like growth factor loaded in silk delivery systems
- In vitro drug release [3, 4]: >7 weeks
- In vitro drug release ([3]; Porous sponge, Drug encapsulated): >4 weeks

Molecule: Tetramethylrhodamine conjugated bovine serum albumin [TMR-BSA]
- loading efficiency [1]: about 51%
- In vitro drug release [2]: >4 weeks
- initial burst release ([2]; PBS pH 7.4, room temperature): about 1%

Molecule: tetramethylrhodamine conjugated dextran [TMR-dextran]
- loading efficiency [1]: approximately 1.2%
- total loading released within 2 weeks ([2]; PBS pH 7.4, room temperature, within 2 weeks): more than 60%
